This series deals with EGFR gene. As to the kind of experiment: Screening of SureKill guide RNAs in the EGFR gene for ability to induce indels. As to conditions: transfections of individual guide RNAs (spCas9 RNP); PDMR human lung adenocarcinoma cells with EGFR L858R; DECODR. The format is cell-based. As to the method:
Human lung squamous cell carcinoma NCI-H1703 clone 44-25 cells were derived from NCI-H1703 cells (#CRL-5889) which were purchased from ATCC (Manassas, VA, USA). NCI-H1703 clone 44-25 cells contains R34G mutation (C 4 G) in NFE2L2 gene. H1703 clone 44-25 cells were cultured in ATCC formulation RPMI-1640 with 10% FBS. T75 flasks were used and cells were split 1:5 upon reaching 90% confluency. Human lung adenocarcinoma cells (Dist. Lot. No. LG0703-F948-PDC) were acquired from the National Institute of Health's National Cancer Institute's Patient-Derived Models Repository (PDMR). This PDMR cell line contains the L858R mutation (T 4 G) in the EGFR gene. The PDMR cells were maintained in Advanced DMEM/F12 media containing 10% FBS, 0.4 μg/mL hydrocortisone, 0.01 μg/mL EGF Recombinant Human Protein, 24 μg/mL adenine, and 2 mM L-Glutamine. T75s were used and cells were split 1:3 upon reaching 90% confluency. All cultures were maintained in cell culture incubators at 37° C. and 5% CO2.
Ribonucleoproteins (RNP) are complexed by incubating 250 pmol of purified synthetic gRNA (Synthego Corporation, Redwood City, CA) with 50 pmol of purified spCas9 (Synthego Corporation, Redwood City, CA) at room temperature in nuclease-free 1× TE buffer for 15 minutes.
Transfections were carried out using the Lonza Nuclefector 4d. Cultures in t75s at 90% confluence were split 1:2 24 hours prior to transfection. RNPs were complexed at 250:50 pmol for 30 minutes prior to transfection, during which time cells were harvested and counted. All reactions were 100 μL and contained 1 e6 cells. Lonza SF solution and Nucleofector program CM-130 were used in all transfections of the H1703 cell line. Lonza SE solution and Nucleofector program CA-137 were used in all transfections of the PDMR. After transfection, 500 μL of media that had been equilibrated to cell culture CO2 and temperature conditions was added to each 100 μL cuvettes. Cuvettes were then placed in the incubator. After 20 minutes, the entire content of each cuvette was seeded into 3 mL of media in a 6 well plate. After 72 hours, samples were dissociated using 200 μL Trypsin 0.25% for 5 minutes. 800 μL culture media was used to quench and split into 1.5 mL tubes each containing 500 μL of the sample. Tubes were spun at 300×g for 5 minutes. One of the tubes was placed in the −20° C. freezer and the other was resuspended in 500 μL of Trizol for RNA extraction and cDNA synthesis.
All sequencing was performed on the Applied Biosystems SeqStudio. The BigDye Terminator v3.1 Cycle Sequencing Kit was used to prepare samples for sequencing. Resulting sequences were analyzed with DECODR to determine indel rates (Bloh et al., CRISPR J. 4:120-31 (2021)).
Human EGFR is a frequently mutated gene that is associated with cancers. One of the most common mutations is L858R which results in the creation of a novel PAM site, making it a targetable sequence by CRISPR. Like the R34G mutation, the CRISPR designed to target the L858R mutation is not highly efficient on its own. By combining the L858R-targeting CRISPR with another CRISPR of high efficiency in a downstream intronic region, exon skipping can be induced, resulting in a higher efficiency of functional knockout than the L858R targeting CRISPR alone. To find a suitable gRNA to pair with the L858R targeting CRISPR, we selected the intron between exons 21 and 22 (FIG. 6). A series of gRNAs were created in this region and screened for their ability to induce indels, a measure of their activity using DECODR (Bloh et al., CRISPR J. 4:120-31 (2021)) (Table 3).
In Table 3, all sequences are listed from 5′ to 3′. Indel percent, a measure of CRISPR activity, is based on transfections of individual guide RNAs. All guide RNAs, with the exception of L858R, were designed in the intron between exons 21 and 22.

The substance “L858R gRNA: guide RNA TCAAGATCACAGATTTTGGG, SEQ ID NO:8, targets EGFR L858R mutation (listed as DNA, chemistry not given here)” gave an indel % of 73.2%.

Source of the values: patent publication US12171813B2, “Methods of and compositions for reducing gene expression and/or activity” (Christiana Care Gene Editing Institute, Inc., priority 2021, dated 2024).
